According to PMC3210601, “New Tetromycin Derivatives with Anti-Trypanosomal and Protease Inhibitory Activities” (Marine Drugs, 2011):
Values joined by “and” are separate entries in the source; they are usually repeats but may differ in a detail not shown here. Identical values can stand only once. Like-named read-outs stand apart in the source and are kept apart here.

Legend:
[1] = tested on: Leishmania major promastigotes; assay: Anti-Leishmania Alamar Blue assay (promastigotes); settings: read-out: IC50 L. major
[2] = Cytotoxicity Alamar Blue assay, 293T kidney epithelial cells; settings: human
[3] = tested on: Trypanosoma brucei subsp. brucei; assay: Anti-Trypanosoma Alamar Blue assay (trypomastigotes, strain TC 221)
cathepsin L = cathepsin L (Homo sapiens, UniProt P07711); assay: Fluorometric protease inhibition assay, cathepsin L; assay type: biochemical, mammalian; settings: for Ki: read-out: CL Ki; for CL k2nd: time-dependent inhibition, k2nd = ki/Ki
rhodesain = rhodesain (Trypanosoma brucei rhodesiense, UniProt Q95PM0); assay: Fluorometric protease inhibition assay, rhodesain; assay type: biochemical, T. brucei rhodesiense; settings: for Ki: read-out: RD Ki; for RD k2nd: time-dependent inhibition, k2nd = ki/Ki
cathepsin B = cathepsin B (Homo sapiens, UniProt P07858); assay: Fluorometric protease inhibition assay, cathepsin B; assay type: biochemical, mammalian; settings: for Ki: non-time dependent, Dixon equation, corrected to zero substrate, substrate 100 μM, pH 6.2, 25 °C, read-out: CB Ki
falcipain-2 = falcipain-2 (Plasmodium falciparum, UniProt Q8I6U4); assay: Fluorometric protease inhibition assay, falcipain-2; assay type: biochemical, P. falciparum; settings: for Ki: read-out: FP Ki; for FP k2nd: time-dependent inhibition, k2nd = ki/Ki
SARS-CoV PL^pro = SARS-CoV PL^pro (Severe acute respiratory syndrome coronavirus, UniProt P0C6X7); assay: biochemical
[4] = mouse
[5] = 48 h, read-out: IC50 T. brucei brucei (48 h)
[6] = 72 h, read-out: IC50 T. brucei brucei (72 h)
[7] = progress curves, inhibitor 0-16.7 μM (Figure 6)

Chain of rhodesain (Q95PM0 entry or part of it): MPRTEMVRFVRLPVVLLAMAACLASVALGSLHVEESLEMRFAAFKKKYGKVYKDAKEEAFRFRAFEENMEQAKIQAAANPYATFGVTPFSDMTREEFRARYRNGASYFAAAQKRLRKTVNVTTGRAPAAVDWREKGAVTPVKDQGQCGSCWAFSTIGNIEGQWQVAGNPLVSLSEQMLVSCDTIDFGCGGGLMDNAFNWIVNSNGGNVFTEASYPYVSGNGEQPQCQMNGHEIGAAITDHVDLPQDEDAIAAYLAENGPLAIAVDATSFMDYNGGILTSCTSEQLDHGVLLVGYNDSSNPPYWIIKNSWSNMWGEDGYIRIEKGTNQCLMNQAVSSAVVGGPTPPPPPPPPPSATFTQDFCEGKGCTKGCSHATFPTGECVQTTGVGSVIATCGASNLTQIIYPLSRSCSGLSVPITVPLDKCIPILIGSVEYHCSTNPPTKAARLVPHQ
Chain of cathepsin L (P07711 114-333, species assumed): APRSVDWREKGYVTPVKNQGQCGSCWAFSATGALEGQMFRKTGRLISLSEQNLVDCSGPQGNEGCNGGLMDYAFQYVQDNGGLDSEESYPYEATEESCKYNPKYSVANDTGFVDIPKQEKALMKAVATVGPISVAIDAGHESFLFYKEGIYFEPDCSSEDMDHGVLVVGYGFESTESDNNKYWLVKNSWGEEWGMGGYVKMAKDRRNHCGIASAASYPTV
Chain of falcipain-2 (Q8I6U4 244-484): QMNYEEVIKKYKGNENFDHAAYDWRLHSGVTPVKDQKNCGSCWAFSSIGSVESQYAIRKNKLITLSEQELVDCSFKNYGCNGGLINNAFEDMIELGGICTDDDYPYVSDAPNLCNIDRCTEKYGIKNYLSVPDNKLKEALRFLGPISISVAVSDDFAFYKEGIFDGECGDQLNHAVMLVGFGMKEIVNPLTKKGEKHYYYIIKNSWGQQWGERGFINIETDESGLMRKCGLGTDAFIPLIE

With `COc1cc(C)c(C(=O)NC2C(C)OC(OC3CC(C)=CC4C3CC(C)C3/C(C)=C\CC/C(C)=C/C5(C)C=C(C(=O)O)C(C)CC56OC(=O)C(=C6O)C(=O)C43C)C(O)C2(C)O)c(O)c1` (stereo not drawn) [Compound 1, Tetromycin 1] the IC50 [1] was greater than 100 µM, the IC50 at 24 h ([2]; 293T kidney epithelial cells) was greater than 100 µM and the IC50 [3, 5] was 29.3 µM. For the same molecule, the IC50 [3, 6] was 31.7 µM.

Work on `COc1cc(C)c(C(=O)OC2C(C)OC(OC3CC(C)=CC4C3CC(C)C3/C(C)=C\CC/C(C)=C/C5(C)C=C(C(=O)O)C(C)CC56OC(=O)C(=C6O)C(=O)C43C)C(O)C2O)c(OC)c1` (stereo not drawn) [Compound 2, Tetromycin 2] yielded an IC50 [1] greater than 100 µM, an IC50 at 24 h ([2]; 293T kidney epithelial cells) greater than 100 µM and an IC50 [3, 5] of 45.4 µM. The IC50 [3, 6] was 80.3 µM.

In the case of `COc1cc(O)cc(C)c1C(=O)OC1C(C)OC(OC2CC=C(C)C3C2CC(C)C2/C(C)=C\CC/C(C)=C/C4C=C(C(=O)O)C(C)CC45OC(=O)C(=C5O)C(=O)C32C)C(O)C1O` (stereo not drawn) [Compound 3, Tetromycin 3], the IC50 [1] is reported as 36.8 µM, the Ki (cathepsin L) is reported as 15 ± 1.95 µM and the “CL k2nd” value (cathepsin L) is reported as 14,977 ± 2005 M^−1 min^−1. For the same molecule, the “ki (rate constant of inhibition) rhodesain” value (rhodesain; Figure 8, data from two independent assays) was 0.042 min⁻¹, the Ki (rhodesain) was 2.1 ± 0.9 µM and the “RD k2nd” value (rhodesain) was 36,600 ± 1590 M^−1 min^−1. The Ki (cathepsin B) was 0.57 ± 0.04 µM, the IC50 at 24 h ([2]; 293T kidney epithelial cells) was 33.4 µM and the IC50 [3, 5] was 26.9 µM. For the same molecule, the IC50 [3, 6] was 30.4 µM, the Ki (falcipain-2) was 1.65 ± 0.25 µM and the “FP k2nd” value (falcipain-2) was 617 ± 9 M⁻¹ min⁻¹.

With `COc1cc(O)cc(C)c1C(=O)OC1C(C)OC(OC2CC(C)=CC3C2CC(C)C2/C(C)=C\CC/C(C)=C/C4(C)C=C(C(=O)O)C(C)CC45OC(=O)C(=C5O)C(=O)C32C)C(O)C1O` (stereo not drawn) [Compound 4, Tetromycin 4] the IC50 [1] was greater than 100 µM, the Ki (cathepsin L) was 22.4 ± 0.8 µM and the “CL k2nd” value (cathepsin L) was 14,700 ± 1000 M^−1 min^−1. For the same molecule, the Ki (SARS-CoV PL^pro) was 40 ± 6.5 µM, the Ki (rhodesain) was 4 ± 0.3 µM and the “RD k2nd” value (rhodesain) was 8354 ± 1562 M⁻¹ min⁻¹. The Ki (cathepsin B) was 1.6 ± 0.1 µM, the IC50 at 24 h ([2]; 293T kidney epithelial cells) was 58.6 µM and the IC50 [3, 5] was 35.9 µM. The IC50 [3, 6] was 41.6 µM, the Ki (falcipain-2) was 3.1 ± 0.2 µM and the “FP k2nd” value (falcipain-2) was 1836 ± 108 M⁻¹ min⁻¹.

With `CC1=CC2(C)/C=C(\C)CC/C=C(/C)C3C(C)=CC4C(O)CCC(C)C4C3(C)C(=O)C3=C(O)C2(CC1C)OC3=O` (stereo not drawn) [Compound 5, Tetromycin B] the IC50 [1] was greater than 100 µM, the Ki (cathepsin L) was 32.5 ± 0.05 µM and the “CL k2nd” value (cathepsin L) was 1576 ± 413 M⁻¹ min⁻¹. The Ki (SARS-CoV PL^pro) was 69.6 ± 7.2 µM, the “mode of inhibition with respect to the substrate, rhodesain” value (rhodesain; Ki determined at three different substrate concentrations) was “competitive inhibition” and the “time dependence of inhibition, rhodesain” value (rhodesain; [7]) was “time-dependent inhibition”. The Ki (rhodesain) was 0.62 ± 0.03 µM, the “RD k2nd” value (rhodesain) was 14,539 ± 1949 M^−1 min^−1 and the Ki (cathepsin B) was 1.5 µM and 1.59 µM. The “time dependence of inhibition, cathepsin B” value (cathepsin B; [7]) was “non-time dependent inhibition”, the IC50 at 24 h [2] was 71.8 µM and the IC50 [3, 5] was 30.9 µM. For the same molecule, the IC50 [3, 6] was 34.2 µM, the IC50 at 24 h [4] was 20.2 µM and the Ki (falcipain-2) was 1.42 ± 0.01 µM. The “FP k2nd” value (falcipain-2) was 15,540 ± 1295 M^−1 min^−1.
